Data on eleven compounds can be found in article PMC10480232 (Scientific Reports, 2023).

Residues, ends and D or L forms follow the SMILES beside them. No end group written: not given here. Some results are limits rather than exact numbers.

The test system of one series is SARS-CoV-2. Particulars: 1 h.
The test system of series [1] is SARS-CoV-2 (nCoV/USA_WA1/2020).

For `CC[C@H](C)[C@H](NC(=O)[C@H](CCCNC(=N)N)NC(=O)[C@H](CCC(=O)O)NC(=O)CN)C(=O)N[C@@H](CCCCN)C(=O)N[C@@H](CC(N)=O)C(=O)N[C@@H](C)C(=O)N[C@@H](CCCCN)C(=O)N[C@@H](CCCCN)C(=O)N[C@@H](CCCCN)C(=O)N[C@H](C(=O)N[C@@H](Cc1c[nH]c2ccccc12)C(=O)N[C@@H](CCC(=O)O)C(=O)N[C@@H](CCCCN)C(=O)N[C@H](C(=O)N[C@@H](CCCCN)C(=O)N[C@@H](CO)C(=O)N[C@@H](Cc1ccccc1)C(=O)NCC(=O)N[C@@H](CCCNC(=N)N)C(=O)N[C@@H](CCCNC(=N)N)C(=O)N[C@H](C(=O)N[C@@H](CCCCN)C(=O)N[C@@H](CC(=O)O)C(=O)N[C@@H](Cc1ccccc1)C(=O)N[C@@H](Cc1ccccc1)C(=O)N[C@@H](CCCNC(=N)N)C(=O)N[C@@H](CCCCN)C(=O)N1CCC[C@H]1C(=O)N[C@@H](CO)C(=O)N1CCC[C@H]1C(=O)N[C@@H](CCC(=O)O)C(=O)N[C@H](C(=O)N[C@@H](CCC(=O)O)C(=O)N1CCC[C@H]1C(=O)O)C(C)C)[C@@H](C)CC)[C@@H](C)CC)C(C)C` [Bat Cathelicidin 4c] (H-GERIKNAKKKVWEKIKSFGRRIKDFFRKPSPEVEP-OH; N-terminus and C-terminus assumed), in the series on SARS-CoV-2, the “SARS-CoV-2 inhibition at 50 µM” value is > 50%.
On to `CC[C@H](C)[C@H](NC(=O)[C@H](CCCNC(=N)N)NC(=O)[C@@H]1CCCN1C(=O)[C@@H](NC(=O)[C@@H]1CCCN1C(=O)[C@H](Cc1ccccc1)NC(=O)[C@H](CO)NC(=O)[C@@H]1CCCN1C(=O)[C@@H]1CCCN1C(=O)[C@H](Cc1ccccc1)NC(=O)[C@H](Cc1c[nH]c2ccccc12)NC(=O)[C@@H]1CCCN1C(=O)[C@@H]1CCCN1C(=O)[C@@H]1CCCN1C(=O)[C@H](Cc1c[nH]c2ccccc12)NC(=O)[C@H](CCC(N)=O)NC(=O)[C@H](Cc1c[nH]c2ccccc12)NC(=O)[C@H](CCCNC(=N)N)NC(=O)[C@H](CC(C)C)NC(=O)[C@@H]1CCCN1C(=O)[C@@H](NC(=O)[C@@H]1CCCN1C(=O)[C@H](Cc1c[nH]c2ccccc12)NC(=O)[C@H](Cc1ccccc1)NC(=O)[C@@H]1CCCN1C(=O)[C@@H](NC(=O)[C@H](CCCNC(=N)N)NC(=O)[C@@H](N)CCCNC(=N)N)[C@@H](C)CC)[C@@H](C)CC)[C@@H](C)CC)C(=O)N[C@@H](CO)C(=O)N[C@@H](CCCNC(=N)N)C(=O)N[C@@H](CCCCN)C(=O)N[C@@H](CCCNC(=N)N)C(=O)O` [Beluga 1] (H-RRIPFWPIPLRWQWPPPWFPPSFPIPRISRKR-OH; N-terminus and C-terminus assumed), for which the “SARS-CoV-2 inhibition at 50 µM” value in the series on SARS-CoV-2 is listed as > 50%.
As to `CC[C@H](C)[C@H](NC(=O)[C@H](CCCCN)NC(=O)[C@H](CCC(=O)O)NC(=O)[C@H](CCCCN)NC(=O)[C@H](CO)NC(=O)[C@H](CCCCN)NC(=O)[C@H](CCCNC(=N)N)NC(=O)[C@H](Cc1ccccc1)NC(=O)[C@H](Cc1ccccc1)NC(=O)[C@H](CC(=O)O)NC(=O)CNC(=O)[C@H](CC(C)C)NC(=O)[C@@H](N)CC(C)C)C(=O)NCC(=O)N[C@@H](CCCCN)C(=O)N[C@@H](CCC(=O)O)C(=O)N[C@@H](Cc1ccccc1)C(=O)N[C@@H](CCCCN)C(=O)N[C@@H](CCCNC(=N)N)C(=O)N[C@H](C(=O)N[C@H](C(=O)N[C@@H](CCC(N)=O)C(=O)N[C@@H](CCCNC(=N)N)C(=O)N[C@H](C(=O)N[C@@H](CCCCN)C(=O)N[C@@H](CC(=O)O)C(=O)N[C@@H](Cc1ccccc1)C(=O)N[C@@H](CC(C)C)C(=O)N[C@@H](CCCNC(=N)N)C(=O)N[C@@H](CC(N)=O)C(=O)N[C@@H](CC(C)C)C(=O)N[C@H](C(=O)N1CCC[C@H]1C(=O)N[C@@H](CCCNC(=N)N)C(=O)N[C@H](C(=O)N[C@@H](CCC(=O)O)C(=O)N[C@@H](CO)C(=O)O)[C@@H](C)O)C(C)C)[C@@H](C)CC)C(C)C)[C@@H](C)CC` [LL-37, reference compound], the “SARS-CoV-2 inhibition at 50 µM” value with SARS-CoV-2 is on record as > 50%. Moreover, in the series with human red blood cells, the “hemolytic activity (in words)” value is reported as “considerable hemolytic activity”. Also, the “HEK293T TD50” value with HEK293T cells is given as 26.61 µM. Also, the “Vero TD50 48 h” value with Vero hACE2 cells was found to be 39.44 µM.
Consider `CC[C@H](C)[C@H](NC(=O)CNC(=O)[C@@H](NC(=O)[C@H](CCCCN)NC(=O)[C@@H](NC(=O)[C@H](CCCCN)NC(=O)[C@H](CCCCN)NC(=O)[C@H](Cc1ccccc1)NC(=O)[C@H](Cc1ccccc1)NC(=O)[C@H](CC(N)=O)NC(=O)[C@H](CCCCN)NC(=O)[C@H](Cc1ccccc1)NC(=O)[C@H](CCCNC(=N)N)NC(=O)[C@@H](N)CCCCN)[C@@H](C)CC)[C@@H](C)O)C(=O)N[C@@H](CCCCN)C(=O)N[C@@H](CCCCN)C(=O)N[C@H](C(=O)N[C@H](C(=O)N[C@@H](CCCCN)C(=O)N[C@@H](CCCCN)C(=O)N[C@H](C(=O)N[C@@H](CCCCN)C(=O)N[C@@H](CCC(=O)O)C(=O)O)[C@@H](C)O)[C@@H](C)CC)C(C)C` [NS] (H-KRFKNFFKKIKTGIKKVIKKTKE-OH; N-terminus and C-terminus assumed), for which, in the series with SARS-CoV-2, the “SARS-CoV-2 inhibition at 50 µM” value is reported as > 50%.
On the same count and under the same terms, the value for `CC[C@H](C)[C@H](NC(=O)[C@H](CO)NC(=O)[C@H](CCCCN)NC(=O)[C@H](CCCNC(=N)N)NC(=O)[C@H](CC(C)C)NC(=O)[C@H](CCCCN)NC(=O)[C@H](CCCCN)NC(=O)[C@@H](NC(=O)[C@H](CCCNC(=N)N)NC(=O)[C@H](CCCCN)NC(=O)[C@@H](N)CCCNC(=N)N)[C@@H](C)CC)C(=O)N[C@@H](CCCCN)C(=O)N[C@@H](CCCCN)C(=O)N[C@@H](CCCNC(=N)N)C(=O)N[C@@H](CC(C)C)C(=O)N[C@@H](CCCCN)C(=O)N[C@@H](CCCCN)C(=O)N[C@@H](CC(C)C)C(=O)N1CCC[C@H]1C(=O)N[C@@H](Cc1ccccc1)C(=O)N[C@@H](CCC(=O)O)C(=O)N[C@H](C(=O)N1CCC[C@H]1C(=O)N[C@@H](CC(C)C)C(=O)N[C@H](C(=O)N[C@@H](Cc1ccccc1)C(=O)N[C@@H](CO)C(=O)N[C@H](C(=O)N1CCC[C@H]1C(=O)N[C@@H](Cc1ccccc1)C(=O)O)[C@@H](C)CC)C(C)C)C(C)C` [PC1a] (H-RKRIKKLRKSIKKRLKKLPFEVPLVFSIPF-OH; N-terminus and C-terminus assumed) was > 50%; that for `CC[C@H](C)[C@H](NC(=O)[C@H](CCCCN)NC(=O)[C@H](CCCCN)NC(=O)[C@H](Cc1ccccc1)NC(=O)[C@H](Cc1ccccc1)NC(=O)[C@H](CCCCN)NC(=O)[C@H](CCCCN)NC(=O)[C@H](Cc1ccccc1)NC(=O)[C@H](CCCNC(=N)N)NC(=O)[C@@H](N)CCCCN)C(=O)N[C@@H](CCCCN)C(=O)N[C@@H](CCCCN)C(=O)N[C@@H](CO)C(=O)N[C@H](C(=O)N[C@@H](CCCCN)C(=O)N[C@@H](CCCCN)C(=O)N[C@@H](CCCNC(=N)N)C(=O)N[C@H](C(=O)N[C@@H](CCCCN)C(=O)N[C@@H](CCCCN)C(=O)N[C@@H](CC(C)C)C(=O)N[C@@H](Cc1ccccc1)C(=O)N[C@@H](CCCCN)C(=O)N[C@@H](CCCCN)C(=O)N1CCC[C@H]1C(=O)N[C@@H](CCCNC(=N)N)C(=O)N[C@H](C(=O)N[C@H](C(=O)N1CCC[C@H]1C(=O)N[C@H](C(=O)N[C@@H](CO)C(=O)N[C@H](C(=O)N1CCC[C@H]1C(=O)N[C@@H](Cc1ccccc1)C(=O)O)[C@@H](C)CC)[C@@H](C)CC)[C@@H](C)CC)C(C)C)C(C)C)C(C)C` [TS] (H-KRFKKFFKKIKKSVKKRVKKLFKKPRVIPISIPF-OH; N-terminus and C-terminus assumed) was > 50%.
Turning to `CC[C@H](C)[C@H](NC(=O)[C@H](CO)NC(=O)CNC(=O)[C@@H](NC(=O)[C@@H](NC(=O)[C@@H]1CCCN1C(=O)[C@@H]1CCCN1C(=O)[C@@H](NC(=O)[C@H](Cc1c[nH]c2ccccc12)NC(=O)[C@H](CCCCN)NC(=O)[C@H](CC(C)C)NC(=O)[C@@H](NC(=O)[C@H](CCCCN)NC(=O)CNC(=O)[C@@H](NC(=O)[C@H](CCCCN)NC(=O)[C@H](CCCCN)NC(=O)[C@H](CC(C)C)NC(=O)[C@H](CCCNC(=N)N)NC(=O)[C@H](CCCCN)NC(=O)[C@H](CCCNC(=N)N)NC(=O)[C@@H](NC(=O)[C@H](CCCCN)NC(=O)[C@H](CCCCN)NC(=O)[C@H](CCCNC(=N)N)NC(=O)[C@H](CC(C)C)NC(=O)[C@H](CCCNC(=N)N)NC(=O)[C@H](CCCNC(=N)N)NC(=O)[C@H](Cc1ccccc1)NC(=O)[C@H](CCCNC(=N)N)NC(=O)CNC(=O)[C@@H](N)C(C)C)[C@@H](C)O)[C@@H](C)CC)C(C)C)[C@@H](C)CC)[C@@H](C)CC)C(C)C)C(=O)O` [p5C] (H-VGRFRRLRKKTRKRLKKIGKVLKWIPPIVGSI-OH), the “anti-SARS-CoV-2 activity relative to PMAP-36R (in words)” value in series [1] was “little inhibitory activity”.
On the same count and under the same terms, the value for `CC[C@H](C)[C@H](NC(=O)[C@@H]1CCCN1C(=O)[C@@H]1CCCN1C(=O)[C@@H](NC(=O)[C@H](Cc1c[nH]c2ccccc12)NC(=O)[C@H](CCCCN)NC(=O)[C@H](CC(C)C)NC(=O)[C@@H](NC(=O)[C@H](CCCCN)NC(=O)CNC(=O)[C@@H](NC(=O)[C@H](CCCCN)NC(=O)[C@H](CCCCN)NC(=O)[C@H](CC(C)C)NC(=O)[C@H](CCCNC(=N)N)NC(=O)[C@H](CCCCN)NC(=O)[C@H](CCCNC(=N)N)NC(=O)[C@@H](NC(=O)[C@H](CCCCN)NC(=O)[C@H](CCCCN)NC(=O)[C@H](CCCNC(=N)N)NC(=O)[C@H](CC(C)C)NC(=O)[C@H](CCCNC(=N)N)NC(=O)[C@H](CCCNC(=N)N)NC(=O)[C@H](Cc1ccccc1)NC(=O)[C@H](CCCNC(=N)N)NC(=O)CNC(=O)[C@@H](N)C(C)C)[C@@H](C)O)[C@@H](C)CC)C(C)C)[C@@H](C)CC)C(=O)O` [p9C] (H-VGRFRRLRKKTRKRLKKIGKVLKWIPPI-OH) was “none”; that for `CC[C@H](C)[C@H](NC(=O)[C@H](CCCCN)NC(=O)[C@H](CCCCN)NC(=O)[C@@H](N)CC(C)C)C(=O)NCC(=O)N[C@@H](CCCCN)C(=O)N[C@H](C(=O)N[C@@H](CC(C)C)C(=O)N[C@@H](CCCCN)C(=O)N[C@@H](Cc1c[nH]c2ccccc12)C(=O)N[C@H](C(=O)N1CCC[C@H]1C(=O)N1CCC[C@H]1C(=O)N[C@H](C(=O)N[C@H](C(=O)NCC(=O)N[C@@H](CO)C(=O)N[C@H](C(=O)N1CCC[C@H]1C(=O)N[C@@H](CC(C)C)C(=O)NCC(=O)N[C@@H](CS)C(=O)NCC(=O)O)[C@@H](C)CC)C(C)C)[C@@H](C)CC)[C@@H](C)CC)C(C)C` [p14N] (H-LKKIGKVLKWIPPIVGSIPLGCG-OH) was “no inhibition”.
“IKNVELNIENLGERIKNAKKKVWEKIKSFGRRIKDFFRKPSPEVEP [Bat Cathelicidin 4]”: the “SARS-CoV-2 inhibition at 50 µM” value in the series on SARS-CoV-2 is on record as > 50%.
Still for that read-out and setting: under “RTKRFRKLGNLLQKGGQKIGQKIERIGQKIKDFFSNLVPRQEGA [Pangolin 1]” stands > 50%.
